Six compounds from ChEMBL document CHEMBL1140179, “Rhabdastrellins A-F, isomalabaricane triterpenes from the marine sponge Rhabdastrella aff. distincta” (J Nat Prod, 2008) can be followed below.

The subject of this experiment is HL-60. Kind of experiment: Cytotoxicity against human HL60 cells. It counts as functional, cell-based.

≈ marks a conversion by molar mass, not a printed value.

What is called IC50 is the concentration at which inhibition is half-maximal. Take `C\C(=C/C=C/C(C)=C1/C(=O)C[C@H]2[C@@]3(C)CC[C@H](O)[C@](C)(CO)[C@@H]3CC[C@]12C)c1ccc(C)c(=O)o1` [RHABDASTRELLIN A]: the IC50 stood at 4.2 µg/mL (≈ 8.74 µM).
Next, `CC(/C=C/C=C(C)/C=C/C(O)C(C)(C)O)=C1/C(=O)C[C@H]2[C@@]3(C)CC[C@H](O)[C@](C)(CO)[C@@H]3CC[C@]12C` (stereo partly specified) [RHABDASTRELLIN B]: above 10 µg/mL; `CC(/C=C/C(O)C(C)(C)O)=C\C=C\C(C)=C1\C(=O)C[C@H]2[C@@]3(C)CC[C@H](O)[C@](C)(CO)[C@@H]3CC[C@]12C` (stereo partly specified) [RHABDASTRELLIN C]: above 10 µg/mL; `C/C(C(=O)/C=C/C(C)=C/C=C/C(C)(C)O)=C1/C(=O)C[C@H]2[C@@]3(C)CC[C@H](O)[C@](C)(CO)[C@@H]3CC[C@]12C` [RHABDASTRELLIN D]: above 10 µg/mL.
The compound `COC(=O)/C(C)=C/C=C/C(C)=C/C=C/C(C)=C1/C(=O)C[C@H]2[C@@]3(C)CC[C@H](O)C(C)(C)[C@@H]3CC[C@]12C` [RHABDASTRELLIN E] showed an IC50 above 10 µg/mL.
To `COC(=O)/C(C)=C/C=C/C(C)=C/C=C/C(C)=C1\C(=O)C[C@H]2[C@@]3(C)CC[C@H](O)C(C)(C)[C@@H]3CC[C@]12C` [RHABDASTRELLIN F] belongs above 10 µg/mL.
